The values below come from ChEMBL document CHEMBL6078651, “Tyrosinase Inhibitory Properties of Compounds Isolated from Artocarpus integer Roots” (J Nat Prod, 2024).

The assay addresses Mushroom tyrosinase (Agaricus bisporus) (UniProt O42713+Q00024+C7FF04+C7FF05). The experiment in a line: Inhibition of mushroom tyrosinase using L-DOPA as substrate at 50 uM preincubated for 10 mins followed by substrate addition measured after 20 mins by spectrophotometry. It counts as protein assay. The conditions noted are these: time 30.0 min.

Calls of active or inactive are those of the source. The rule behind the calls is not given here.

`CC(C)=CCc1c2c(c(O)c3c(=O)c4c(oc13)-c1c(O)cc(O)c3c1C(C4)C(C)(C)O3)C=CC(C)(C)O2` (stereo not given): the inhibition entry was “inactive”.
Consider `COc1cc2c(c3c1[C@H](C(C)(C)O)CC[C@@H]3c1ccc(O)cc1O)C=CC(C)(C)O2`, for which the inhibition entry was “inactive”.
Next, `COc1cc2c(cc1O)-c1oc3cc(O)cc(O)c3c(=O)c1C(C=C(C)C)O2` (stereo not given): “inactive”; `C=C(C)c1cc2c(=O)c3c(O)c(CC=C(C)C)c(O)c(C/C=C(\C)CCC=C(C)C)c3oc2c2c1[C@](O)(C(=O)OC)CC2=O`: “inactive”.
Next, `C=C(C)c1cc2c(=O)c3c(O)c4c(c(C/C=C(\C)CCC=C(C)C)c3oc2c2c1[C@](O)(C(=O)OC)CC2=O)OC(C)(C)C=C4`: “inactive”; `C=CC(C)(C)/C=C/c1ccc(O)cc1`: “inactive”; `COc1cc(O)c2c(c1)O[C@H](c1cc(OC)c(OC)cc1OC)CC2=O`: “inactive”.
With `CC(C)c1cc2c(O)cc(-c3cc4ccc(O)cc4o3)cc2o1`, the inhibition entry was “inactive”.
Next, `COc1cc2c(c3oc(-c4cc(O)cc(O)c4)cc13)C=CC(C)(C)O2`: “inactive”.
The value for `C=C(C)c1cc2c(=O)c3c(O)c4c(c(CC=C(C)C)c3oc2c2c1[C@](O)(C(=O)OC)CC2=O)OC(C)(C)C=C4` was “inactive”; that for `C=C(C)C1Cc2c(oc3cc(OC)cc(O)c3c2=O)-c2c(O)cc(OC)c(O)c21` (stereo not given) was “inactive”; that for `CC(C)=CCC/C(C)=C/Cc1c2c(c(O)c3c(=O)c4c(oc13)-c1c(O)cc(O)c3c1C(C4)C(C)(C)O3)C=CC(C)(C)O2` (stereo not given) was “inactive”.
The value for `COc1cc(O)c2c(=O)c3c(oc2c1)-c1cc(O)c(OC)cc1OC3C=C(C)C` (stereo not given) was “inactive”; that for `CC(C)=CCC/C(C)=C/Cc1c2c(c(O)c3c(=O)c(CC=C(C)C)c(-c4cc(C)c(O)cc4O)oc13)C=CC(C)(C)O2` was “inactive”; that for `CC(C)=CC1Oc2cc(O)ccc2-c2oc3cc(O)cc(O)c3c(=O)c21` (stereo not given) was “inactive”.
